Laboratory results taken from patent US12060351B2, “Thiadiazole IRAK4 inhibitors” (Gilead Sciences, Inc., priority 2018, dated 2024).
Like-named read-outs stand apart in the source and are kept apart here.

How the values were obtained:
IRAK4 enzyme = target: T1, IRAK4 enzyme (Homo sapiens, UniProt Q9NWZ3); experiment: IRAK4 Biochemical Assay (TR-FRET, STK1 KinEASE); settings: 500 μM ATP, Table 2 second part (compounds 33-343), read-out: IC50 IRAK4-HTBS
T1 construct: purchased Carna Biosciences, Chuo-ku, Kobe, Japan
T1 sequence (Q9NWZ3 1-460): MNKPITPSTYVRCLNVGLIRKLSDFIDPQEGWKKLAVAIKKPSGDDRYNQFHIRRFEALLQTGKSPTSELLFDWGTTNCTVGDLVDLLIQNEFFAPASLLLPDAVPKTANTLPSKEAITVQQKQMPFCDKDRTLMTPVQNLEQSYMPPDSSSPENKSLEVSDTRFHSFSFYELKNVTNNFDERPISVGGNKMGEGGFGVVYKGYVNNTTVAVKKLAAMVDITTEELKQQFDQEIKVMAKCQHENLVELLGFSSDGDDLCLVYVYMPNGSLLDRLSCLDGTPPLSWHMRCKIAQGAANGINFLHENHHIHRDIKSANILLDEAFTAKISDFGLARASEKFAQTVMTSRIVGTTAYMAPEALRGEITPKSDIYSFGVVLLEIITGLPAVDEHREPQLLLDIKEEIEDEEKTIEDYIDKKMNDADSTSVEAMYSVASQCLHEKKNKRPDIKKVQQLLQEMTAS
Procedure, shortened: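 Human IRAK4 (0.75 nM) preincubated 15 min with compound and 2 μM STK1 peptide, then reacted 120 min at room temperature with 500 μM ATP in HEPES pH 7.0 buffer with MgCl2 and DTT. EDTA stop with Cryptate anti-phosphopeptide antibody and tracer, 60 min; TR-FRET read as 665/615 nm ratio.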

TNFα = experiment: IRAK4 Monocyte TNFα Cell Based Assay (LPS-stimulated, TR-FRET TNFα detection); set-up: species or system human; settings: Homo sapiens, Monocyte, read-out: EC50 MONO TNF HTRF
Procedure, shortened: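 Monocytes (5,000 cells/well) treated with compound (0.1% DMSO) for 1 hour at 37° C, then stimulated with 50 pg/ml LPS for 4 hours. TNFα in medium quantified by TR-FRET two-antibody detection after overnight room-temperature incubation. Percent of control calculated against unstimulated (0%) and LPS-stimulated (100%) cells.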

[1] = human monocytes, LPS-stimulated, Table 2 second part (compounds 33-343)

SMILES | IC50 (IRAK4 enzyme) | EC50 (TNFα; [1]) | EC50 (TNFα)
CC(=O)N[C@@H]1C[C@H]2CC[C@@H](C1)N2c1nnc(-c2cnc(-c3ccc4cc(C#N)cnn34)cc2NC(C)C)s1 [Example 56, N-((1R,3s,5S)-8-(5-(6-(3-cyanopyrrolo[1,2-b]pyridazin-7-yl)-4-(isopropylamino)pyridin-3-yl)-1,3,4-thiadiazol-2-yl)-8-azabicyclo[3.2.1]octan-3-yl)acetamide] | 0.49 nM | – | 8.3 nM
CC(C)Nc1cc(-c2ccc3cc(C#N)cnn23)ncc1-c1nnc(N2C[C@H]3CC[C@@H](C2)[C@@H]3NC(=O)N2CCOCC2)s1 [Example 57, N-((1R,5S,8s)-3-(5-(6-(3-cyanopyrrolo[1,2-b]pyridazin-7-yl)-4-(isopropylamino)pyridin-3-yl)-1,3,4-thiadiazol-2-yl)-3-azabicyclo[3.2.1]octan-8-yl)morpholine-4-carboxamide] | 1.16 nM | 6.8 nM | –
CC(C)Nc1cc(-c2ccc3cc(C#N)cnn23)ncc1-c1nnc(N2C[C@H]3CC[C@@H](C2)[C@@H]3NS(C)(=O)=O)s1 [Example 58, N-((1R,5S,8s)-3-(5-(6-(3-cyanopyrrolo[1,2-b]pyridazin-7-yl)-4-(isopropylamino)pyridin-3-yl)-1,3,4-thiadiazol-2-yl)-3-azabicyclo[3.2.1]octan-8-yl)methanesulfonamide] | 1.88 nM | 9.3 nM | –
COC(=O)N[C@@H]1[C@@H]2CC[C@H]1CN(c1nnc(-c3cnc(-c4ccc5cc(C#N)cnn45)cc3NC(C)C)s1)C2 [Example 59, methyl ((1R,5S,8s)-3-(5-(6-(3-cyanopyrrolo[1,2-b]pyridazin-7-yl)-4-(isopropylamino)pyridin-3-yl)-1,3,4-thiadiazol-2-yl)-3-azabicyclo[3.2.1]octan-8-yl)carbamate] | 1.97 nM | 14.7 nM | –
CC(C)Nc1cc(-c2ccc3cc(C#N)cnn23)ncc1-c1nnc(N2C[C@H]3CC[C@@H](C2)[C@@H]3N)s1 [Example 60, 7-(5-(5-((1R,5S,8s)-8-amino-3-azabicyclo[3.2.1]octan-3-yl)-1,3,4-thiadiazol-2-yl)-4-(isopropylamino)pyridin-2-yl)pyrrolo[1,2-b]pyridazine-3-carbonitrile] | 0.97 nM | 8.5 nM | –
CC(C)Nc1cc(-c2ccc3cc(C#N)cnn23)ncc1-c1nnc(N2C[C@H]3CC[C@@H](C2)[C@@H]3NC(=O)C(C)(C)O)s1 [Example 85, N-((1R,5S,8s)-3-(5-(6-(3-cyanopyrrolo[1,2-b]pyridazin-7-yl)-4-(isopropylamino)pyridin-3-yl)-1,3,4-thiadiazol-2-yl)-3-azabicyclo[3.2.1]octan-8-yl)-2-hydroxy-2-methylpropanamide] | 1.04 nM | 3.3 nM | –
C[C@H](C#N)Nc1cc(-c2ccc3cc(C#N)cnn23)ncc1-c1nnc(N2C[C@H]3CC[C@@H](C2)[C@@H]3NC(=O)C(C)(C)O)s1 [Example 86, N-((1R,5S,8S)-3-(5-(4-(((R)-1-cyanoethyl)amino)-6-(3-cyanopyrrolo[1,2-b]pyridazin-7-yl)pyridin-3-yl)-1,3,4-thiadiazol-2-yl)-3-azabicyclo[3.2.1]octan-8-yl)-2-hydroxy-2-methylpropanamide] | 0.65 nM | 0.6 nM | –
CC(C)(O)C(=O)N[C@@H]1[C@@H]2CC[C@H]1CN(c1nnc(-c3cnc(-c4ccc5cc(C#N)cnn45)cc3NC3COC3)s1)C2 [Example 87, N-((1R,5S,8s)-3-(5-(6-(3-cyanopyrrolo[1,2-b]pyridazin-7-yl)-4-(oxetan-3-ylamino)pyridin-3-yl)-1,3,4-thiadiazol-2-yl)-3-azabicyclo[3.2.1]octan-8-yl)-2-hydroxy-2-methylpropanamide] | 0.6 nM | 2.1 nM | –
CC(C)Nc1cc(-c2ccc3cc(C#N)cnn23)ncc1-c1nnc(N2C[C@H]3CC[C@@H](C2)[C@@H]3NC(=O)[C@H]2C[C@](C)(O)C2)s1 [Example 92, (1r,3R)-N-((1R,5S,8s)-3-(5-(6-(3-cyanopyrrolo[1,2-b]pyridazin-7-yl)-4-(isopropylamino)pyridin-3-yl)-1,3,4-thiadiazol-2-yl)-3-azabicyclo[3.2.1]octan-8-yl)-3-hydroxy-3-methylcyclobutane-1-carboxamide] | 1.72 nM | 5 nM | –

Second part, led by results:

IC50 (IRAK4 enzyme) | EC50 (TNFα; [1]) | SMILES | EC50 (TNFα)
1.78 nM | 5.9 nM | CC(C)Nc1cc(-c2ccc3cc(C#N)cnn23)ncc1-c1nnc(N2C[C@H]3CC[C@@H](C2)[C@@H]3NC(=O)[C@H]2C[C@@](C)(O)C2)s1 [Example 93, (1s,3S)-N-((1R,5S,8s)-3-(5-(6-(3-cyanopyrrolo[1,2-b]pyridazin-7-yl)-4-(isopropylamino)pyridin-3-yl)-1,3,4-thiadiazol-2-yl)-3-azabicyclo[3.2.1]octan-8-yl)-3-hydroxy-3-methylcyclobutane-1-carboxamide] | –
0.9 nM | 4 nM | CC(C)Nc1cc(-c2ccc3cc(C#N)cnn23)ncc1-c1nnc(N2C[C@H]3CC[C@@H](C2)[C@@H]3NC(=O)C2(C)COC2)s1 [Example 94, N-((1R,5S,8s)-3-(5-(6-(3-cyanopyrrolo[1,2-b]pyridazin-7-yl)-4-(isopropylamino)pyridin-3-yl)-1,3,4-thiadiazol-2-yl)-3-azabicyclo[3.2.1]octan-8-yl)-3-methyloxetane-3-carboxamide] | –
0.7 nM | 4.1 nM | CC(C)Nc1cc(-c2ccc3cc(C#N)cnn23)ncc1-c1nnc(N2C[C@H]3CC[C@@H](C2)[C@@H]3NC(=O)C2(C)CCOCC2)s1 [Example 95, N-((1R,5S,8s)-3-(5-(6-(3-cyanopyrrolo[1,2-b]pyridazin-7-yl)-4-(isopropylamino)pyridin-3-yl)-1,3,4-thiadiazol-2-yl)-3-azabicyclo[3.2.1]octan-8-yl)-4-methyltetrahydro-2H-pyran-4-carboxamide] | –
0.82 nM | 21.7 nM | CC(C)Nc1cc(-c2ccc3cc(C#N)cnn23)ncc1-c1nnc(N2C[C@H]3CC[C@@H](C2)[C@@H]3NC(=O)C(C)(C)C(=O)O)s1 [Example 97, 3-(((1R,5S,8s)-3-(5-(6-(3-cyanopyrrolo[1,2-b]pyridazin-7-yl)-4-(isopropylamino)pyridin-3-yl)-1,3,4-thiadiazol-2-yl)-3-azabicyclo[3.2.1]octan-8-yl)amino)-2,2-dimethyl-3-oxopropanoic acid] | –
1.13 nM | 3.2 nM | CC(C)Nc1cc(-c2ccc3cc(C#N)cnn23)ncc1-c1nnc(N2C[C@H]3CC[C@@H](C2)[C@@H]3NC(=O)CN=S(C)(C)=O)s1 [Example 98, N-((1R,5S,8s)-3-(5-(6-(3-cyanopyrrolo[1,2-b]pyridazin-7-yl)-4-(isopropylamino)pyridin-3-yl)-1,3,4-thiadiazol-2-yl)-3-azabicyclo[3.2.1]octan-8-yl)-2-((dimethyl(oxo)-16-sulfanylidene)amino)acetamide] | –
0.8 nM | 2.1 nM | CC(C)Nc1cc(-c2ccc3cc(C#N)cnn23)ncc1-c1nnc(N2C[C@H]3CC[C@@H](C2)[C@@H]3NC(=O)C2CCN(C)CC2)s1 [Example 100, N-((1R,5S,8s)-3-(5-(6-(3-cyanopyrrolo[1,2-b]pyridazin-7-yl)-4-(isopropylamino)pyridin-3-yl)-1,3,4-thiadiazol-2-yl)-3-azabicyclo[3.2.1]octan-8-yl)-1-methylpiperidine-4-carboxamide] | –
0.89 nM | 1.2 nM | CC(C)(O)C(=O)N[C@@H]1[C@@H]2CC[C@H]1CN(c1nnc(-c3cnc(-c4ccc5cc(C#N)cnn45)cc3NC3CCOCC3)s1)C2 [Example 101, N-((1R,5S,8s)-3-(5-(6-(3-cyanopyrrolo[1,2-b]pyridazin-7-yl)-4-((tetrahydro-2H-pyran-4-yl)amino)pyridin-3-yl)-1,3,4-thiadiazol-2-yl)-3-azabicyclo[3.2.1]octan-8-yl)-2-hydroxy-2-methylpropanamide] | –
0.51 nM | 1.4 nM | CC(C)Nc1cc(-c2ccc3cc(C#N)cnn23)ncc1-c1nnc(N2C[C@H]3CC[C@@H](C2)[C@@H]3NC(=O)C(=O)N=S(C)(C)=O)s1 [Example 103, N1-((1R,5S,8s)-3-(5-(6-(3-cyanopyrrolo[1,2-b]pyridazin-7-yl)-4-(isopropylamino)pyridin-3-yl)-1,3,4-thiadiazol-2-yl)-3-azabicyclo[3.2.1]octan-8-yl)-N2-(dimethyl(oxo)-16-sulfanylidene)oxalamide] | –
0.98 nM | 4.2 nM | COC(=O)N1CCN(C(=O)N[C@@H]2[C@@H]3CC[C@H]2CN(c2nnc(-c4cnc(-c5ccc6cc(C#N)cnn56)cc4NC(C)C)s2)C3)CC1 [Example 105, methyl 4-(((1R,5S,8s)-3-(5-(6-(3-cyanopyrrolo[1,2-b]pyridazin-7-yl)-4-(isopropylamino)pyridin-3-yl)-1,3,4-thiadiazol-2-yl)-3-azabicyclo[3.2.1]octan-8-yl)carbamoyl)piperazine-1-carboxylate] | –
